Measured values published in patent US20220324796A1, “ANTIBIOTIC COMPOUNDS” (The General Hospital Corporation, priority 2019, published 2022).
In brackets after ≈: the same amount, converted by molar mass.

How the values were obtained:
18 S. aureus strains = test: MIC assay, S. aureus strains of the panel; type: cell-based; details: Staphylococcus aureus; range over the 18 S. aureus strains of the panel (FIG. 6)
Procedure: Bacterial strains and growth conditions. S. aureus strains were grown in tryptic soy broth (TSB) (BD, Franklin Lakes, N.J., USA). E. faecium and E. faecalis strains were grown in brain-heart infusion (BHI) broth (BD, Franklin Lakes, N.J., USA), and four Gram-negative species, Klebsiella pneumoniae, Acinetobacter baumannii, Pseudomonas aeruginosa, and Enterobacter aerogenes were grown in Luria Bertani (LB) broth (BD, Franklin Lakes, N.J., USA). All bacteria were grown at 37° C. at 200 r.p.m.
(§1) Minimal inhibitory concentration (MIC) assay. The MICs of antibiotics were determined by the standard micro-dilution method recommended by the Clinical and Laboratory Standards Institute. MIC assays were conducted in biological triplicate.

[1] = system: VRSA strain VRS1 persisters; test: Persister killing assay; type: cell-based, S. aureus; details: linezolid and daptomycin at 100× MIC; bithionol at indicated concentrations (FIG. 1E)
Procedure: (§2) Persister killing assay. […] Persister cells of MRSA MW2 or VRSA VRS1 were prepared by growing cultures overnight to stationary phase at 37° C. at 200 rpm and washing three times with PBS. 1 mL of ˜1×10^8 CFU/mL MRSA persisters was added to 1 mL of PBS containing a 2-fold higher concentration of the desired concentration of antibiotics in a 96-well assay block (Corning Costar 3960). For assays with daptomycin, PBS was supplemented with 50 μg/mL CaCl2. The assay block was incubated at 37° C. with shaking at 200 rpm. At various times, 400 μl samples were removed, washed once with PBS, serially diluted and spot-plated on TSA plates. Colonies were counted after overnight incubation at 37° C. to determine the titer of live cells. These experiments were conducted in triplicate.

[2] = system: stationary-phase MRSA MW2 persisters; test: Persister killing assay; type: cell-based, S. aureus; details: for response of MRSA persisters to conventional antibiotics: 100× MIC; for killing / viability of MRSA persisters: in words, 4 h treatment (FIGS. 5, 13, 14, 4B)
Procedure: as §2

MRSA MW2 cells = test: Bacterial membrane permeability assay (SYTOX Green); type: cell-based, S. aureus; details: for SYTOX Green membrane permeabilization: MRSA MW2 exponential-phase cells and/or persisters, in words; for membrane activity compared with bithionol: in words (FIGS. 5, 13, 14)
Procedure: Bacterial membrane permeability assay. Exponential-phase or stationary-phase S. aureus MW2 cells prepared as described above under Killing kinetics assay and Persister killing assay, respectively, were washed 3 times with the same volume of PBS. The washed cells were adjusted to OD600=0.4 with PBS. SYTOX Green (Molecular Probes, Waltham, Mass., USA) was added to 10 mL of the diluted bacterial suspension to a final concentration of 5 μM and incubated for 30 min at room temperature in the dark. 50 μl of the bacterial/SYTOX Green suspension was mixed with 50 μl of phosphate buffered saline (PBS) containing twice the desired concentrations of compounds in black, clear-bottom, 96-well plates (Corning no. 3904). Fluorescence was measured at room temperature using a spectrophotometer (SpectraMax M2, Molecular Devices) with excitation and emission wavelengths of 485 nm and 525 nm, respectively. All experiments were conducted in biological triplicate.

MRSA MW2 [3] = test: Antimicrobial activity (MIC) of bithionol analogs; type: cell-based, S. aureus; details: for antimicrobial activity compared with bithionol: in words (FIGS. 5, 13, 14)
Procedure: as §1

[4] = system: MRSA strain MW2 persisters; test: Deep-seated mouse thigh infection model, bacterial load; type: in vivo; details: 30 mg/kg each agent, every 12 h for 3 days from 24 h post-infection
Procedure: Deep-seated mouse thigh infection model. […] Mice were euthanized at 96 h post-infection. […] Thighs were homogenized in PBS, serially diluted with PBS, and spot-plated on TSA plates.

S. aureus MW2 = test: Membrane fluidity assay (Laurdan GP); type: cell-based; details: 32 μg/mL (FIG. 4), in words
Procedure: Membrane fluidity assay. Bacterial membrane fluidity was estimated by slightly modifying previously described methods. An overnight culture of S. aureus MW2 was diluted 1:1,000 in 25 mL TSB. The diluted culture was grown to OD600˜1.5 at 37° C. with shaking at 200 rpm, followed by 10 min incubation with 10 μM Laurdan at room temperature in the dark (Sigma-Aldrich, Cat # 40227). The stained cell culture was washed with PBS 4 times and concentrated 2 times. 100 μL of the 2-fold concentrated culture was mixed with 100 μL of phosphate buffered saline (PBS) containing twice the desired concentrations of compounds in black, clear-bottom, 96-well plates (Corning no. 3904). After 1 h incubation at room temperature in the dark, the Laurdan fluorescence intensities were measured using a spectrophotometer (SpectraMax M2, Molecular Devices) with emission wavelengths of 435 nm and 490 nm upon excitation at 350 nm. The Laurdan GP was calculated using the formula GP=(I435−I490)/(I435+I490). All experiments were conducted in biological triplicate.

P. aeruginosa PA14 = test: MIC assay (micro-dilution); type: cell-based; details: Pseudomonas aeruginosa
Procedure: as §1
(§3) Antimicrobial activity of each analog was tested against four MRSA strains (MW2, BF1, BF2, and BF3), Pseudomonas aeruginosa (PA14), Klebsiella pneumonia (WGLW2), and Acinetobacter baumannii (ATCC 17978).

A. baumannii ATCC 17978 = test: MIC assay (micro-dilution); type: cell-based; details: Acinetobacter baumannii, ATCC17978
Procedure: as §1, §3

MRSA BF1 = test: MIC assay (micro-dilution); type: cell-based, S. aureus; details: Staphylococcus aureus
Procedure: as §1, §3

MRSA BF3 = test: MIC assay (micro-dilution); type: cell-based, S. aureus; details: Staphylococcus aureus
Procedure: as §1, §3

MRSA MW2 [5] = test: MIC assay (micro-dilution); type: cell-based, S. aureus; details: Staphylococcus aureus
Procedure: as §1, §3

MRSA BF2 = test: MIC assay (micro-dilution); type: cell-based, S. aureus; details: Staphylococcus aureus
Procedure: as §1, §3

K. pneumoniae WGLW2 = test: MIC assay (micro-dilution); type: cell-based, Klebsiella pneumonia; details: Klebsiella pneumoniae
Procedure: as §1, §3

Molecule | killing / viability of MRSA persisters [2] | SYTOX Green membrane permeabilization (MRSA MW2 cells) | melting point | membrane activity compared with bithionol (MRSA MW2 cells) | antimicrobial activity compared with bithionol (MRSA MW2 [3]) | further results
CCCCCCCCCC(=O)N[C@@H](Cc1c[nH]c2ccccc12)C(=O)N[C@H](CC(N)=O)C(=O)N[C@@H](CC(=O)O)C(=O)N[C@@H]1C(=O)NCC(=O)N[C@@H](CCCN)C(=O)N[C@@H](CC(=O)O)C(=O)N[C@H](C)C(=O)N[C@@H](CC(=O)O)C(=O)NCC(=O)N[C@H](CO)C(=O)N[C@@H]([C@H](C)CC(=O)O)C(=O)N[C@@H](CC(=O)c2ccccc2N)C(=O)O[C@@H]1C [daptomycin] | does not kill MRSA persisters | does not induce rapid SYTOX Green membrane permeabilization |  |  |  | MIC (18 S. aureus strains): 0.5 to 8 µg/mL (≈ 0.309 to 4.94 µM); activity against VRSA VRS1 persisters [1]: nominal activity; response of MRSA persisters to conventional antibiotics [2]: high level of tolerance
Oc1c(Br)cc(Cl)cc1Sc1cc(Cl)cc(Br)c1O [BT-oBr, 6,6′-thio-bis-(2-bromo-4-chlorophenol)] |  |  | 178 to 180 °C | similar | similar | 
Oc1c(Cl)cc(Br)cc1Sc1cc(Br)cc(Cl)c1O [BT-pBr, 6,6′-thio-bis-(4-bromo-2-chlorophenol)] |  |  | 200 to 202 °C | similar | similar | 
Oc1c(Br)cc(Br)cc1Sc1cc(Br)cc(Br)c1O [BT-opBr, 6, 6′-thio-bis-(2,4-dibromophenol)] |  |  | 164 to 166 °C | similar | similar | 
CN[C@H](CC(C)C)C(=O)N[C@H]1C(=O)N[C@@H](CC(N)=O)C(=O)N[C@H]2C(=O)N[C@H]3C(=O)N[C@H](C(=O)N[C@H](C(=O)O)c4cc(O)cc(O)c4-c4cc3ccc4O)[C@H](O)c3ccc(c(Cl)c3)Oc3cc2cc(c3O[C@@H]2O[C@H](CO)[C@@H](O)[C@H](O)[C@H]2O[C@H]2C[C@](C)(N)[C@H](O)[C@H](C)O2)Oc2ccc(cc2Cl)[C@H]1O [vancomycin] |  |  |  |  |  | effect on MRSA CFUs in the mouse thigh [4]: did not significantly reduce
Oc1c(F)cc(F)cc1Sc1cc(F)cc(F)c1O [BT-opF, 6,6′-thio-bis-(2,4-difluorophenol)] |  |  | 127 to 130 °C | slightly reduced | slightly reduced | 
gentamicin |  |  |  |  |  | effect on MRSA CFUs in the mouse thigh [4]: did not significantly reduce
[O-][S+](c1cc(Cl)cc(Cl)c1O)c1cc(Cl)cc(Cl)c1O [bitin-S] | do not kill them | permeabilize MRSA persister cell membranes |  | reduced membrane activity | decreased antimicrobial activity | MIC (MRSA MW2 [3]; bithionol analogs (FIGS. 5 and 13), strain not given): 8 µg/mL (≈ 21.5 µM); change in membrane fluidity (Laurdan GP) (S. aureus MW2): do not cause the change in membrane fluidity
CC(=O)NC[C@H]1CN(c2ccc(N3CCOCC3)c(F)c2)C(=O)O1 [linezolid] |  |  |  |  |  | activity against VRSA VRS1 persisters [1]: no; response of MRSA persisters to conventional antibiotics [2]: high level of tolerance
Oc1c(Cl)cc(F)cc1Sc1cc(F)cc(Cl)c1O [BT-pF, 6,6′-thio-bis-(2-chloro-4-fluorophenol)] | do not kill them | permeabilize MRSA persister cell membranes | 140 to 142 °C | slightly reduced | slightly reduced | 
Oc1c(F)cc(Cl)cc1Sc1cc(Cl)cc(F)c1O [BT-oF, 6,6′-thio-bis-(4-chloro-2-fluorophenol)] | do not kill them | permeabilize MRSA persister cell membranes | 159 to 161 °C | slightly reduced | slightly reduced | 
NCCOc1c(Cl)cc(Cl)cc1Sc1cc(Cl)cc(Cl)c1OCCN [Compound 1] |  |  |  |  |  | MIC (P. aeruginosa PA14): > 64 µg/mL; MIC (A. baumannii ATCC 17978): 64 µg/mL (≈ 145 µM); MIC (MRSA BF1): 64 µg/mL (≈ 145 µM); MIC (MRSA BF3): 32 µg/mL (≈ 72.4 µM); MIC (MRSA MW2 [5]): 64 µg/mL (≈ 145 µM); MIC (MRSA BF2): 64 µg/mL (≈ 145 µM); MIC (K. pneumoniae WGLW2): 64 µg/mL (≈ 145 µM)
COc1c(Cl)cc(Cl)cc1Sc1cc(Cl)cc(Cl)c1OC [BT-OMe, bis-(3,5-Dichloro-2-methoxyphenyl)-sulfane] |  |  |  | complete nullification | complete nullification | 
